In PubChem BioAssay (NCI):
Several values for one entry are separate records, joined by “and”; a condition that tells them apart may be missing. Identical values can stand only once.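 All cell lines were grown in 96-well plates and treated with compound for 48 hours. The concentration for 50% growth inhibition is given as GI50. TGI marks complete inhibition of growth.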

Assays:
Test in all cases: NCI-60 cell line screen, 48 h
RXF 393 renal = test system: RXF 393 renal
HCT-116 colon = test system: HCT-116 colon
ACHN renal = test system: ACHN renal
HOP-62 NSCLC = test system: HOP-62 NSCLC
SK-OV-3 ovarian = test system: SK-OV-3 ovarian
UACC-62 melanoma = test system: UACC-62 melanoma
MCF7 breast = test system: MCF7 breast
A549 NSCLC = test system: A549 NSCLC
NCI-H226 lung = test system: NCI-H226 lung
OVCAR-3 ovarian = test system: OVCAR-3 ovarian

SMILES	GI50 (RXF 393 renal) [µM]	TGI (RXF 393 renal)	GI50 (HCT-116 colon) [µM]	TGI (HCT-116 colon)	GI50 (ACHN renal) [µM]	TGI (ACHN renal)	GI50 (HOP-62 NSCLC) [µM]	TGI (HOP-62 NSCLC)	GI50 (SK-OV-3 ovarian) [µM]	TGI (SK-OV-3 ovarian)	GI50 (UACC-62 melanoma) [µM]	TGI (UACC-62 melanoma) [µM]	GI50 (MCF7 breast) [µM]	TGI (MCF7 breast)	GI50 (A549 NSCLC) [µM]	TGI (A549 NSCLC)	GI50 (NCI-H226 lung) [µM]	TGI (NCI-H226 lung)	GI50 (OVCAR-3 ovarian) [µM]	TGI (OVCAR-3 ovarian) [µM]
COc1cc(/C=C/C(=O)C(C(=O)/C=C/c2ccc(OC(=O)CCNc3nnc(C)s3)c(OC)c2)C(=O)CCNc2nnc(C)s2)ccc1OC(=O)CCNc1nnc(C)s1	1.3	3.22 µM	1.65	3.81 µM	2.28	5.22 µM	5.02	> 31.8 µM	4.65	23.6 µM	1.73	3.57	2.16	12.6 µM	2.7	7.87 µM	2.64	8.12 µM	2.4	6.95
NC(N)=N/N=C(/c1ccccc1)c1ccc(Cl)cc1	12.3	59.9 µM	4.71	63.6 µM	40.6	> 100 µM	30.4	> 100 µM	39.7	> 100 µM	22.4	> 100	3.69	> 100 µM	15.5	> 100 µM	29.3	> 100 µM	2.88	12.1
O=C1CSC(=S)N1Cc1cccnc1	6.11	24.2 µM	3.36	11 µM	6.14	19.5 µM	47	> 100 µM	35.8	> 100 µM	11.3	24.7	2.43	12.8 µM	23.9	58.9 µM	42.3	> 100 µM	3.39	12.1
Cc1ccc(/C=C/C(=O)c2ccc(N)cc2)c(C)c1	5.56	17.9 µM	1.91	3.76 µM	1.77	3.2 µM	17	38 µM	16.5	31.3 µM	2.52	7.16	8.29	37.2 µM	17.6	37.5 µM	2.8	7.25 µM	–	–
COc1cc2c3c(n(CCCNC(=O)OCC4c5ccccc5-c5ccccc54)c(=O)c2cc1OC)-c1cc2c(cc1C3=O)OCO2	20.1	> 73.9 µM	13.8	> 100 µM	0.376	6.25 µM	13.7	> 74 µM	> 64.7	> 100 µM	33.4	> 61.2	7.62	> 100 µM	> 100	> 100 µM	> 100	> 100 µM	> 100	> 100
Cn1c(=O)c2[nH]c(C3CC(=O)CC(c4nc5c([nH]4)c(=O)n(C)c(=O)n5C)N3)nc2n(C)c1=O (stereo unspecified)	–	> 100 µM	–	> 100 µM	–	> 100 µM	–	> 100 µM	–	> 100 µM	–	> 100	–	> 100 µM	–	> 100 µM	–	> 100 µM	–	> 100
COc1ccc(Cn2cc3c(c2-c2ccc(O)cc2)CCc2cnoc2-3)cc1	0.309	3.67 µM	0.422	14.7 µM	0.956	19.5 µM	0.49	18.4 µM	0.34	14.3 µM	0.54	17.6	0.333	15.5 µM	0.477	18.4 µM	4.6	31.3 µM	0.221	0.557
N#CCC12CC=CCC1=C(O)C(=O)c1ccc(O)cc12 (stereo unspecified)	–	> 100 µM	–	> 100 µM	–	> 100 µM	–	> 100 µM	–	> 100 µM	–	> 100	–	> 100 µM	–	> 100 µM	–	> 100 µM	–	> 100
CO/N=C(\COc1ccc2c(c1)oc(=O)c1cc(OC)ccc12)c1cccc(OC)c1	> 100	> 100 µM	> 100	> 100 µM	–	–	> 100	> 100 µM	> 100	> 100 µM	> 100	> 100	> 100	> 100 µM	> 100	> 100 µM	> 100	> 100 µM	> 100	> 100
O=C1/C(=C/c2ccc(Cl)cc2)CN(Cc2cn(CCNc3ccnc4cc(Cl)ccc34)nn2)C/C1=C\c1ccc(Cl)cc1	0.201	0.416 µM	0.203	0.436 µM	0.391	1.21 µM	0.272	0.729 µM	1.03	2.38 µM	0.528	1.92	0.376	1.37 µM	0.284	0.834 µM	0.84	2.69 µM	0.311	0.915
CC1(C)N=C(N)N=C(N)N1c1ccc(OCC(=O)N2CCOCC2)c(Cl)c1	52.8	> 100 µM	0.667	> 100 µM	> 100	> 100 µM	12.2	> 100 µM	69.8	> 100 µM	4.74	> 100	1.36	> 100 µM	0.271	> 100 µM	33.5	> 100 µM	5.63	> 100
COc1cc(C(=O)N2CCN(c3ccccc3OC)CC2)c(N)cc1OCc1ccccc1	25.3	85.9 µM	20.7	42.8 µM	32.4	> 100 µM	34.4	> 100 µM	49.9	> 100 µM	26	77.1	29.3	> 100 µM	34.8	> 100 µM	38.3	> 100 µM	22.1	58.8
Cc1nc(N)sc1N=Nc1cc(Cl)c([N+](=O)[O-])cc1Cl	–	> 100 µM	–	> 100 µM	–	55.9 µM	–	65 µM	–	> 100 µM	–	36.1	–	68.8 µM	–	31.5 µM	–	44.4 µM	–	40
Cc1ccc(NSc2ccccc2[N+](=O)[O-])cc1	0.868	5.27 µM	0.48	12.1 µM	2.3	23.4 µM	0.283	18.8 µM	1.06	20.1 µM	0.157	17	0.133	16.2 µM	0.951	17.1 µM	4.04	20.8 µM	0.503	7.4
Cc1cc(O)ccc1O	15.5	29.1 µM	16.9	32.9 µM	15.7	29.1 µM	34.8	> 100 µM	72.9	> 100 µM	17.9	81.3	19	69.8 µM	> 100	> 100 µM	55.6	> 100 µM	14.1	27.9
CC(C)(C)c1cn2cccc(C(=O)N3CCN(CC(=O)Nc4ccc(Cl)cc4C(=O)c4ccccc4Cl)CC3)c2n1	1.71	6.34 µM	10.3	25.7 µM	6.62	61.4 µM	15.4	32.3 µM	27.5	> 100 µM	10.7	26	3.94	20.8 µM	2.64	23.3 µM	11.3	37 µM	3.71	15.5
C/C1=C\CC[C@@]2(C)O[C@@H]2C[C@@H]2[C@H](C/C(C)=C/CC1)OC(=O)C21CCN=N1 (stereo partly specified)	> 100	> 100 µM	> 100	> 100 µM	> 100	75 µM and > 100 µM	> 100	75 µM and > 100 µM	–	> 75 µM	> 100	> 100	> 100	> 100 µM	> 100	75 µM and > 100 µM	–	> 100 µM	> 100	> 100
COc1ccc2cc3[n+](cc2c1OC)CCc1cc2c(cc1-3)OCO2	50.7	> 100 µM and 223 µM	–	> 100 µM and > 76.7 µM and 79.8 µM	–	> 100 µM	–	> 100 µM and 42.4 µM	38	> 100 µM and 194 µM	7.24	–	–	> 100 µM and > 88.3 µM and 126 µM	–	> 325 µM	–	> 100 µM and 94.9 µM and 67.5 µM	–	–
COC(=O)c1cc2c3ccccc3n3c(=O)c4cc5cc(OC)c(N(S(=O)(=O)c6ccc(C)cc6)S(=O)(=O)c6ccc(C)cc6)cc5nc4c(n1)c23	7.56	26.1 µM	13.5	59.7 µM	6.03	22.2 µM	–	–	4.53	81.3 µM	24.9	> 100	> 100	> 100 µM	> 100	> 100 µM	23.9	> 100 µM	> 100	> 100
COc1ccc(Cn2cnc3cc(C(=O)Nc4cccc5ccccc45)ccc32)c(OC)c1	0.0355	> 100 µM	0.0374	4.49 µM	0.078	> 100 µM	–	–	0.106	> 100 µM	0.0531	> 66.7	0.0357	> 100 µM	0.0644	> 100 µM	0.111	> 100 µM	0.0267	0.0776
